“And” between values parts separate entries of the source, which are not always exact repeats. Identical values can stand only once. Toxic doses and inconclusive results are not listed.

In the assay the test system is P388 leukemia ip, CD2F1 mice, survival T/C. Briefly: NCI In Vivo Anticancer Drug Screen. Data for tumor model P388 Leukemia (intraperitoneal) in CD2F1 (CDF1) mice. The note with it: endpoint: median survival time, higher = longer survival. In short, it runs like this: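 Mice carrying the transplanted tumor received test compound or vehicle. Survival was recorded in each group, and the value is the treated-group measurement divided by that of the vehicle-treated control group.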

The mark [1] stands for this setting: dose: 60.0 mg/kg/injection, schedule: Q01DX005 (ip), vehicle: saline with Tween-80.
[2] abbreviates: dose: 120.0 mg/kg/injection, schedule: Q01DX005 (ip), vehicle: saline with Tween-80.
Where [3] appears, read: dose: 50.0 mg/kg/injection, schedule: Q01DX009 (ip), vehicle: Klucel (hydroxypropylcellulose) (HPC).
The mark [4] stands for this setting: dose: 100.0 mg/kg/injection, schedule: Q01DX009 (ip), vehicle: Klucel (hydroxypropylcellulose) (HPC).
Where [5] appears, read: dose: 200.0 mg/kg/injection, schedule: Q01DX009 (ip), vehicle: Klucel (hydroxypropylcellulose) (HPC).
Where [6] appears, read: dose: 50.0 mg/kg/injection, schedule: Q01DX005 (ip), vehicle: saline with Tween-80.
The mark [7] stands for this setting: dose: 100.0 mg/kg/injection, schedule: Q01DX005 (ip), vehicle: saline with Tween-80.
Where [8] appears, read: dose: 200.0 mg/kg/injection, schedule: Q01DX005 (ip), vehicle: saline with Tween-80.
The mark [9] stands for this setting: dose: 12.5 mg/kg/injection, schedule: Q01DX005 (ip), vehicle: saline with Tween-80.
Setting [10] is: dose: 25.0 mg/kg/injection, schedule: Q01DX005 (ip), vehicle: saline with Tween-80.

Consider `Cc1c(C(=O)O)c(O)cc2c1C(=O)c1c(O)c(C3OC(CO)C(O)C(O)C3O)c(O)c(O)c1C2=O` (stereo unspecified), for which the T/C is, setting by setting: (dose: 0.12 mg/kg/injection, schedule: Q01DX009 (ip), vehicle: saline) 108 % of control; (dose: 0.25 mg/kg/injection, schedule: Q01DX009 (ip), vehicle: saline) 104 % of control; (dose: 0.5 mg/kg/injection, schedule: Q01DX009 (ip), vehicle: saline) 110 % of control; (dose: 1.0 mg/kg/injection, schedule: Q01DX009 (ip), vehicle: saline) 103 % of control; (dose: 2.0 mg/kg/injection, schedule: Q01DX009 (ip), vehicle: saline) 101 % of control.
Consider `Cc1nc2ccc(N)cc2oc1=O`, for which the T/C runs as follows: (dose: 15.0 mg/kg/injection, schedule: Q01DX005 (ip), vehicle: saline with Tween-80) 100 % of control; (dose: 30.0 mg/kg/injection, schedule: Q01DX005 (ip), vehicle: saline with Tween-80) 101 % of control; under setting [1], 105 % of control and 98 % of control.
Take `CC(O[Si](C)(C)C(C)(C)C)C(=O)Sc1ccccn1` (stereo unspecified): the T/C reads like this: under setting [1], 102 % of control; under setting [2], 103 % of control.
On to `COc1ccc(-c2c(C(N)=O)cnc(C)c2C)c(OCc2ccccc2)c1OC`, for which the T/C runs as follows: (dose: 0.05 mg/kg/injection, schedule: Q01DX009 (ip), vehicle: water) 104 % of control; (dose: 0.1 mg/kg/injection, schedule: Q01DX009 (ip), vehicle: water) 117 % of control; (dose: 0.2 mg/kg/injection, schedule: Q01DX009 (ip), vehicle: water) 104 % of control; (dose: 0.4 mg/kg/injection, schedule: Q01DX009 (ip), vehicle: water) 103 % of control and 117 % of control; (dose: 0.8 mg/kg/injection, schedule: Q01DX009 (ip), vehicle: water) 106 % of control; (dose: 1.6 mg/kg/injection, schedule: Q01DX009 (ip), vehicle: water) 106 % of control. Moreover, the T/C (dose: 3.2 mg/kg/injection, schedule: Q01DX009 (ip), vehicle: water) was 109 % of control; the T/C (dose: 6.25 mg/kg/injection, schedule: Q01DX009 (ip), vehicle: other) is 98 % of control; the T/C (dose: 6.4 mg/kg/injection, schedule: Q01DX009 (ip), vehicle: water) is 109 % of control; the T/C (dose: 12.5 mg/kg/injection, schedule: Q01DX009 (ip), vehicle: other) is 101 % of control; the T/C (dose: 25.0 mg/kg/injection, schedule: Q01DX009 (ip), vehicle: other) is 103 % of control; the T/C (dose: 50.0 mg/kg/injection, schedule: Q01DX009 (ip), vehicle: other) is 105 % of control. Besides, the T/C by setting is: (dose: 100.0 mg/kg/injection, schedule: Q01DX009 (ip), vehicle: other) 105 % of control; (dose: 200.0 mg/kg/injection, schedule: Q01DX009 (ip), vehicle: other) 104 % of control; (dose: 400.0 mg/kg/injection, schedule: Q01DX009 (ip), vehicle: other) 107 % of control.
Consider `C/C(=N\NS(=O)(=O)c1ccc(C)cc1)c1c(C)noc1C`, for which the T/C is 94 % of control under setting [3], 99 % of control under setting [4] and 100 % of control under setting [5].
With `CS/C(N)=N\NC(=O)COc1ccc(Cl)cc1`, the T/C is, setting by setting: under setting [6], 100 % of control; under setting [7], 106 % of control; under setting [8], 100 % of control.
Take `CCCCN(CCCC)CN(CCCC)CCCC`: the T/C is, setting by setting: under setting [9], 102 % of control; under setting [10], 112 % of control; under setting [6], 104 % of control and 114 % of control.
On to `Cc1nn(C(=S)S)c(C)c1N=Nc1ccc(F)cc1`, for which the T/C runs as follows: under setting [6], 103 % of control; under setting [7], 110 % of control; under setting [8], 101 % of control.
On to `O=C(O)c1cnc2cc(F)ccc2c1Nc1ccc2c(c1)OCO2`, for which the T/C runs as follows: (dose: 60.0 mg/kg/injection, schedule: Q01DX005 (ip), vehicle: Klucel + Tween-80) 97 % of control; (dose: 120.0 mg/kg/injection, schedule: Q01DX005 (ip), vehicle: Klucel + Tween-80) 94 % of control; (dose: 240.0 mg/kg/injection, schedule: Q01DX005 (ip), vehicle: Klucel + Tween-80) 89 % of control.
`CN(C)NC(=O)[S-].CN(C)NC(=O)[S-].[Ni]`: the T/C is, setting by setting: (dose: 12.5 mg/kg/injection, schedule: Q01DX001 (ip), vehicle: saline with Tween-80) 103 % of control; (dose: 25.0 mg/kg/injection, schedule: Q01DX001 (ip), vehicle: saline with Tween-80) 111 % of control; (dose: 50.0 mg/kg/injection, schedule: Q01DX001 (ip), vehicle: saline with Tween-80) 106 % of control and 96 % of control; (dose: 100.0 mg/kg/injection, schedule: Q01DX001 (ip), vehicle: saline with Tween-80) 109 % of control.
Regarding `CNC(=S)NNC1=NC(=S)NC1(C)C`, the T/C was 98 % of control (dose: 50.0 mg/kg/injection, schedule: Q01DX009 (ip), vehicle: saline); 103 % of control (dose: 100.0 mg/kg/injection, schedule: Q01DX009 (ip), vehicle: saline); 101 % of control (dose: 200.0 mg/kg/injection, schedule: Q01DX009 (ip), vehicle: saline).
Take `CCC(C)P(=O)(N1CC1)N1CC1` (stereo unspecified): the T/C was 109 % of control (dose: 6.25 mg/kg/injection, schedule: Q01DX009 (ip), vehicle: saline); 113 % of control (dose: 6.25 mg/kg/injection, schedule: Q04DX003 (ip), vehicle: saline); 154 % of control (dose: 25.0 mg/kg/injection, schedule: Q01DX009 (ip), vehicle: saline); 190 % of control (dose: 25.0 mg/kg/injection, schedule: Q04DX003 (ip), vehicle: saline).
For `COC(=O)C(C/C(=C/NC(=O)c1ccccc1)NC(=O)c1ccccc1)NC(=O)c1ccccc1` (stereo unspecified), the T/C reads like this: under setting [6], 98 % of control; under setting [7], 98 % of control; under setting [8], 100 % of control.
In the case of `CCCCCCC(O)/C=C/c1ccc(N(C)C)cc1` (stereo unspecified), the T/C by setting is: under setting [3], 103 % of control; under setting [4], 99 % of control; under setting [5], 102 % of control.
On to `CC1=NN(C(=O)c2ccncc2)C(=O)C1N=Nc1ccc([N+](=O)[O-])cc1Cl` (stereo unspecified), for which the T/C by setting is: (dose: 50.0 mg/kg/injection, schedule: Q01DX009 (ip), vehicle: saline with Tween-80) 99 % of control; (dose: 100.0 mg/kg/injection, schedule: Q01DX009 (ip), vehicle: saline with Tween-80) 96 % of control; (dose: 200.0 mg/kg/injection, schedule: Q01DX009 (ip), vehicle: saline with Tween-80) 104 % of control.
For `S=C(N/N=C/c1c[nH]c2ccccc12)NC12CC3CC(CC(C3)C1)C2`, the T/C by setting is: under setting [1], 101 % of control; under setting [2], 90 % of control.
In the case of `Nc1ncc(Cl)c2ccccc12`, the T/C (dose: 6.25 mg/kg/injection, schedule: Q01DX005 (ip), vehicle: saline with Tween-80) is 99 % of control; the T/C under setting [9] was 97 % of control; the T/C under setting [10] was 89 % of control; the T/C under setting [6] is 101 % of control.
Turning to `NC(=S)c1ccc(N=Cc2ccc(Cl)cc2)cc1`, the T/C is, setting by setting: (dose: 50.0 mg/kg/injection, schedule: Q01DX001 (ip), vehicle: Klucel (hydroxypropylcellulose) (HPC)) 97 % of control; (dose: 100.0 mg/kg/injection, schedule: Q01DX001 (ip), vehicle: Klucel (hydroxypropylcellulose) (HPC)) 100 % of control; (dose: 200.0 mg/kg/injection, schedule: Q01DX001 (ip), vehicle: Klucel (hydroxypropylcellulose) (HPC)) 102 % of control.
As to `CCCCOC(=O)C(NC(N)=O)SC` (stereo unspecified), the T/C is, setting by setting: (dose: 50.0 mg/kg/injection, schedule: Q04DX003 (ip), vehicle: saline with Tween-80) 95 % of control; (dose: 100.0 mg/kg/injection, schedule: Q04DX003 (ip), vehicle: saline with Tween-80) 100 % of control; (dose: 200.0 mg/kg/injection, schedule: Q04DX003 (ip), vehicle: saline with Tween-80) 99 % of control.
For `COc1ccc2cc1Oc1ccc(cc1)C[C@@H]1c3cc(c(OC)cc3CCN1C)Oc1c(OC)c(OC)cc3c1[C@H](C2)N(C)CC3`, the T/C is, setting by setting: (dose: 25.0 mg/kg/injection, schedule: Q04DX002 (ip), vehicle: suspension in saline) 99 % of control; (dose: 50.0 mg/kg/injection, schedule: Q04DX002 (ip), vehicle: suspension in saline) 100 % of control; (dose: 100.0 mg/kg/injection, schedule: Q04DX002 (ip), vehicle: suspension in saline) 100 % of control; (dose: 200.0 mg/kg/injection, schedule: Q04DX002 (ip), vehicle: suspension in saline) 93 % of control.

The values above are taken from PubChem BioAssay AID330 (DTP/NCI, 2004).
